# Source: a melting point compilation (Tetko et al.; mined from patent text by program, amines drawn as free bases though some values may be those of a salt)
row,Compound,melting point
1,CCOc1ccc2c(c1)C(C)(c1cc(C(=O)ON3C(=O)CCC3=O)ccc1Cl)C(=O)N2S(=O)(=O)c1ccc(C(=O)NC(C)(C)C)cc1 (centres undefined),168 °C
2,Cc1ccc(C(=O)NC(NC(=NC#N)Nc2ccc(Cl)nc2)C(C)(Cl)Cl)cc1 (centres undefined),198 to 200 °C
3,CN1CCC(N(C)S(=O)(=O)c2ccc(Nc3nccc(Nc4ccc(F)cc4)n3)cc2)CC1,205 to 210 °C
4,CC(=O)OCc1c(Br)cccc1[N+](=O)[O-],36 to 37 °C
5,CCCC1=C(C#N)C(c2ccccc2[N+](=O)[O-])c2c[nH]nc2N1 (centres undefined),216 °C
6,Cc1nc(-c2cc(C#N)c(=O)[nH]c2C)cs1,305 to 307 °C
7,O=C(Nc1nc2cnccc2s1)Oc1ccccc1,> 290 °C
8,OC(CSc1ncnc2c1cnn2CC1CO1)CN1CCN(C(c2ccccc2)c2ccccc2)CC1 (centres undefined),87 to 92 °C
9,CC(C)(C)C(NC(=O)Nc1ccccc1F)NC(=O)c1ccc(Cl)cc1 (centres undefined),229 to 230 °C
10,O=S(=S)(OC1O[C@H](COCc2ccccc2)[C@@H](OCc2ccccc2)[C@H](OCc2ccccc2)[C@H]1OCc1ccccc1)c1ccccc1 (some centres undefined),106 to 108 °C
11,Cc1cccc(NC(=O)NCC(=O)N2[C@@H](C(=O)OC(C)(C)C)C[C@H](C(=O)O)[C@H]2c2ccccc2)c1 (racemic),160 °C
12,C=C(c1ccc(C(=O)OC)cc1)N1CC1C(N)=O (centres undefined),149 to 150 °C
13,CN(C)S(=O)(=O)Nc1cccc(-c2cccc(-c3nc(-c4ccc(C(F)(F)F)cc4)cc(C(F)(F)F)n3)c2)c1,113 °C
14,CC(C)NCCOc1ccc(O)cc1,78 to 80 °C
15,FC(F)(F)c1ccc(-c2cc(Oc3cccc4ccncc34)ncn2)cc1,194 to 195 °C
16,COc1ccc(-c2cn(-c3ccc(C(F)(F)F)cc3F)nn2)cc1,152 to 154 °C
17,CCCCCCOc1c(OCCCCCC)c(OC(=O)C(C)(C)C)c2ccccc2c1OC(=O)C(C)(C)C,111 to 112 °C

row,Compound,melting point
1,COc1cccc(N2CCN(Cc3ccccc3C(c3ccc(O)cc3)c3ccc(O)cc3)CC2)c1,128 to 130 °C
2,Cn1ncnc1COc1nc2c(cc1C(C)(C)C)nnn2-c1c(F)cccc1F,105 to 108 °C
3,Oc1cccc2ccc3ccccc3c12,114 to 116 °C
4,C[C@@H](Cn1ncc2ccc(O)c(Br)c21)O[Si](C)(C)C(C)(C)C,103 to 105 °C
5,CN1CCN(c2ccc([N+](=O)[O-])cc2F)CC1,68 to 70 °C
6,Oc1ccc(-c2nnc(CSCCOc3ccccc3)n2-c2ccccc2)cc1,214 to 216 °C
7,O=C(CCc1ccc(Cl)cc1)Cn1ccnc1,172 to 174 °C
8,CCOCc1nc2c(N)nc3cc(OCc4ccccc4Cl)ccc3c2n1CC(C)C,211 to 212 °C
9,O=C(Nc1ccc2cc(CN3CCCC3)ccc2c1)N1CCC(c2ccc(F)cc2)CC1,209 to 211 °C
10,COc1ccc(C2CCCN2S(=O)(=O)c2ccc(Cl)cc2)cc1 (racemic),133 °C
11,CCCCc1nc2c(C(N)=O)cccc2n1Cc1ccc(-c2ccccc2-c2nnn[nH]2)cc1,235 to 236 °C
12,CC(C)OC(=O)N1CCC(NC(=O)N2CCn3c(c(C(N)=O)c(C#N)c3C3CCOCC3)C2)CC1,124 to 126 °C
13,CCOC(=O)Cc1ccc(NC(=O)C(COc2ccc(Cl)cc2)NS(=O)(=O)c2ccc(F)cc2)cc1 (racemic),132 to 134 °C
14,CCC(OC(=O)c1ccccc1)c1nc2c(C(F)(F)F)cccc2c(O)c1C(=O)Nc1nccs1 (centres undefined),230 °C
15,COc1ccc(NC(=O)N(Cc2ccccc2)C2CCCCCC2)c(NC(=O)c2cc(C(C)(C)C)c(O)c(C(C)(C)C)c2)c1,125 to 130 °C
16,CCCCn1c(=O)c(NC(=O)Nc2cc(CO)ccc2C(C)(C)C)c(-c2cccc(OCc3cccnc3)c2)c2cccnc21,149 to 150 °C
17,Cc1nc2cc(-c3nn(C(C)c4oc5ccccc5c(=O)c4-c4cccc(F)c4)c4ncnc(N)c34)ccc2[nH]1 (centres undefined),154 to 156 °C
